Assay results: patent publication US20040082558A1, “Administration of estradiol metabolites for inhibition of drug-induced nephrotoxicity” (priority 2002, published 2004)
Marks after values point to notes of the source that are not given here.

Assays:
Format in all cases: in vivo, rat
PAN-nephropathic rats [1] = assay: Plasma testosterone radioimmunoassay; details: 12 weeks of treatment, male rats
Method: An aliquot of mid-point blood sample drawn during the first clearance period was used for testosterone measurements. Plasma testosterone levels were determined by radioimmunoassay using a commercial kit provided by ICN Biomedicals, Inc. (Costa Mesa, Calif.) according to the protocol of the manufacturer.

PAN-nephropathic rats [2] = assay: Acute measurements of renal hemodynamics and excretory function at 12 weeks; details: 12 weeks of treatment
Method: (§1) After baseline metabolic parameters were measured, animals were randomly assigned to receive subcutaneous saline (3 ml/kg; Control group, n=9) or puromycin aminonucleoside (PAN) (75 mg/kg; drug-induced nephrotoxic animals, n=26). PAN is a drug widely used to produce drug-induced nephrotoxicity in laboratory animals. Grond, J., et al., Contributions to Nephrology 60:83 (1988), the disclosure of which is incorporated herein by reference. Injections of PAN (20 mg/kg) were repeated after 2, 4, 8 and 10 weeks of treatment. Three hours after the initial injections, control animals were implanted with osmotic minipumps (model 2ML4, Alza, Palo Alto, Calif.) containing vehicle (polyethylene glycol 400, 2.5 μl/hour), whereas PAN-treated animals were implanted with osmotic minipumps containing either vehicle (PAN group, n=13) or 2-hydroxyestradiol (10 μg/kg/hour, PAN+2OHE group, n=13). Assignment to the PAN and PAN+2OHE groups was random. Six animals in the PAN group and 2 animals in the PAN+2OHE group died during the treatment, and these animals were not used in the final data analysis.
At 12 weeks into treatment, animals were anesthetized with pentobarbital (45 mg/kg i.p.) and instrumented for measurements of renal hemodynamics and excretory function. Two polyethylene (PE)-50 catheters were inserted into left jugular vein for delivery of supplemental anesthetics and saline infusion (50 μl/min), respectively. Another PE-50 catheter was inserted into left carotid artery and connected to a blood-pressure analyzer (Micro-Med., Inc., Louisville, Ky.) for continuous measurement of blood pressure and heart rate. A PE-10 catheter was inserted into the left ureter to facilitate collection of urine, and a flow probe (Model 1RB; Transonic Systems, Inc., Ithaca, N.Y.) was placed on the left renal artery for determination of renal blood flow, which was used to calculate renal vascular resistance. Next, an infusion of ^14C-inulin (0.035 μCi/20 μl saline/min) was initiated and after 60 minutes, two 30-minute clearance periods were conducted. A mid-point blood sample (300 μl) was collected and plasma and urine ^14C-inulin radioactivity was measured. Renal clearance of ^14C-inulin was calculated as an estimate of glomerular filtration rate.

[3] = system: proliferating cell nuclear antigen (PCNA); assay: Glomerular immunohistochemical staining for PCNA, quantitative image analysis; details: 12 weeks of treatment, kidney sections
Method: (§2) Animals were killed by an overdose of anesthetic and kidneys were removed and weighed. One kidney was fixed in 10% formalin buffer and the second kidney was quick-frozen in liquid nitrogen and stored at −70° C. Kidney tissue samples were sectioned and processed into paraffin blocks for light microscopy. For labeling of collagen IV, renal cortical segments (5 μm) were incubated overnight at 4° C. with rabbit anti-mouse collagen IV antibody (dilution 1/500 ) obtained from Chemicon International Inc. (Temecula, Calif.). A primary monoclonal mouse antibody ( 1/200 dilution; Dako Corporation, Carpenteria, Calif.) was used to label proliferating cell nuclear antigen (PCNA). […] Nonspecific staining was assessed by replacing the primary antibody with phosphate buffered saline. […] Immunochemical staining for collagen IV and PCNA quantitatively was done with a SAMBA 4000 image analyzer (Image Products International, Chantilly, Va.) using specialized computer software (Immuno-Analysis, version 4.1, Microsoft, Richmond, Wash.), a color video camera and a Compaq computer. […] Ten high power fields (×400) were assessed for staining density or positively marked cells for ED-1. […] Staining intensity of positive areas was also assessed (mean optical density) and a mean quick score was then calculated (mean optical density×labeling index).

PAN-nephropathic rats [4] = assay: Metabolic cage measurements (24-hour urine, intake, plasma) in PAN-nephropathic rats
Method: A total of thirty-five, male Sprague Dawley rats (approximately 290 grams) were used. Rats were housed in the University of Pittsburgh Medical Center animal care facility (temperature, 22° C.; light cycle, 12 hours; relative humidity, 55%). Animals were fed Pro Lab RMH 3000 rodent diet (PMI Nutrition Inc., St Louis, Mo.) and were given water ad libitum. Institutional guidelines for animal welfare were followed, and the University of Pittsburgh Institutional Animal Care and Use Committee approved experimental protocols.
Before initiating treatment, and 3, and 6 and 11 weeks into the treatments, animals were placed in metabolic cages and allowed to acclimatize for two days before conducting the 24-hour measurements of urine volume, food and water intake and urinary sodium, potassium, creatinine, and protein excretion. Tail vein blood samples were also taken for measurement of plasma sodium, potassium, albumin and creatinine. Plasma and urine samples were analyzed for sodium and potassium concentrations using a flame photometer (Model IL-943; Instrumentations Laboratory Inc., Lexington, Ma.) and for creatinine concentrations using a creatinine analyzer (Creatinine Analyzer 2, Beckman Instrument, Inc., Fullerton Calif., USA). Total urine proteins were measured by a spectrophotometric assay using bicinchoninic acid reagent (Pierce; Rockford, Ill.) and a modification of Lowry method. Lowry, O. H., et al., J. Biol. Chem. 193: 265 (1951), the disclosure of which is incorporated herein by reference.
as §1

collagen IV = assay: Glomerular immunohistochemical staining for collagen IV, quantitative image analysis; details: 12 weeks of treatment, kidney sections
Method: as §2

ED1 positive cells = assay: Immunohistochemical staining for ED1 positive cells (macrophage infiltration) in glomeruli and interstitium; details: 12 weeks of treatment, kidney sections
Method: as §2

PAN-treated rats = assay: Mortality during 12-week treatment of PAN-treated rats
Method: as §1

Structure (SMILES): C[C@]12CC[C@@H]3c4cc(O)c(O)cc4CC[C@H]3[C@@H]1CC[C@@H]2O [2-OHE, 2-hydroxyestradiol]
- Plasma testosterone levels (PAN-nephropathic rats [1]): 0.91 ± 0.22 ng/mL
- Blood pressure (in words) (PAN-nephropathic rats [2]): abolished PAN-induced changes in blood pressure
- GFR, inulin clearance (in words) (PAN-nephropathic rats [2]): significantly attenuated PAN-induced changes in GFR
- Hematocrit (PAN-nephropathic rats [2]): 30 ± 3%
- Left Kidney (PAN-nephropathic rats [2]): 2.34 ± 0.09 g
- Glomerular Filtration Rate (PAN-nephropathic rats [2]; 14C-inulin clearance): 0.54 ± 0.06^b ml/min/g kidney
- Body Weight (PAN-nephropathic rats [2]; acute experiment): 353 ± 15
- Mean Blood Pressure (PAN-nephropathic rats [2]; anesthetized): 138.2 ± 4^b mm Hg
- Renal Blood Flow (PAN-nephropathic rats [2]; anesthetized): 2.80 ± 0.18 ml/min/g kidney
- Renal Plasma Flow (PAN-nephropathic rats [2]; anesthetized): 1.96 ± 0.12 ml/min/g kidney
- Renal Vascular Resistance (PAN-nephropathic rats [2]; anesthetized): 58.5 ± 4.5 mm Hg/ml/min/g kid
- Urine Volume (PAN-nephropathic rats [2]; anesthetized): 3.33 ± 0.26 μl/min/g kidney
- Labeling index of glomerular immunoreactive PCNA (in words, FIG. 3) [3]: significantly reduced the labeling index of glomerular immunoreactive PCNA
- Body Weight (PAN-nephropathic rats [4]; 0 wks of treatment (baseline)): 291 ± 5 g
- Creatinine Excretion (PAN-nephropathic rats [4]; 0 wks of treatment (baseline)): 13.0 ± 1.0 mg/day
- FE - K+ (fractional excretion of potassium) (PAN-nephropathic rats [4]; 0 wks of treatment (baseline)): 11.6 ± 1.4%
- FE - Na+ (fractional excretion of sodium) (PAN-nephropathic rats [4]; 0 wks of treatment (baseline)): 0.18 ± 0.03%
- Fluid Intake (PAN-nephropathic rats [4]; 0 wks of treatment (baseline)): 5.37 ± 0.25 mL/h/kg
- Food Intake (PAN-nephropathic rats [4]; 0 wks of treatment (baseline)): 76 ± 2 g/kg/day
- Plasma Cholesterol (PAN-nephropathic rats [4]; 0 wks of treatment (baseline)): 51.2 ± 2.2 mg/dL
- Potassium Excretion (PAN-nephropathic rats [4]; 0 wks of treatment (baseline)): 7.54 ± 0.52 mEq/day/kg
- Sodium Excretion (PAN-nephropathic rats [4]; 0 wks of treatment (baseline)): 3.35 ± 0.18 mEq/day/kg
- Urine Volume (PAN-nephropathic rats [4]; 0 wks of treatment (baseline)): 1.68 ± 0.167 mL/h/kg
- Creatinine Excretion (PAN-nephropathic rats [4]; 3 wks of treatment): 10.9 ± 0.7 mg/day
- FE - K+ (fractional excretion of potassium) (PAN-nephropathic rats [4]; 3 wks of treatment): 32.1 ± 4.4 %
- FE - Na+ (fractional excretion of sodium) (PAN-nephropathic rats [4]; 3 wks of treatment): 0.50 ± 0.10%
- Fluid Intake (PAN-nephropathic rats [4]; 3 wks of treatment): 7.04 ± 0.667 mL/h/kg
- Food Intake (PAN-nephropathic rats [4]; 3 wks of treatment): 75 ± 4 g/kg/day
- Plasma Cholesterol (PAN-nephropathic rats [4]; 3 wks of treatment): 315 ± 39.3 mg/dL
- Potassium Excretion (PAN-nephropathic rats [4]; 3 wks of treatment): 12.3 ± 0.61 mEq/day/kg
- Sodium Excretion (PAN-nephropathic rats [4]; 3 wks of treatment): 5.76 ± 0.57 mEq/day/kg
- Urine Volume (PAN-nephropathic rats [4]; 3 wks of treatment): 3.62 ± 0.292 mL/h/kg
- Creatinine Excretion (PAN-nephropathic rats [4]; 6 wks of treatment): 9.8 ± 0.7 mg/day
- FE - K+ (fractional excretion of potassium) (PAN-nephropathic rats [4]; 6 wks of treatment): 17.3 ± 2.5 %
- FE - Na+ (fractional excretion of sodium) (PAN-nephropathic rats [4]; 6 wks of treatment): 0.34 ± 0.04%
- Fluid Intake (PAN-nephropathic rats [4]; 6 wks of treatment): 5.92 ± 0.5 mL/h/kg
- Food Intake (PAN-nephropathic rats [4]; 6 wks of treatment): 60 ± 5 g/kg/day
- Plasma Cholesterol (PAN-nephropathic rats [4]; 6 wks of treatment): 248.3 ± 19.3 mg/dL
- Potassium Excretion (PAN-nephropathic rats [4]; 6 wks of treatment): 9.17 ± 0.63 mEq/day/kg
- Sodium Excretion (PAN-nephropathic rats [4]; 6 wks of treatment): 4.21 ± 0.43 mEq/day/kg
- Urine Volume (PAN-nephropathic rats [4]; 6 wks of treatment): 2.99 ± 0.292 mL/h/kg
- Creatinine Excretion (PAN-nephropathic rats [4]; 11 wks of treatment): 12.8 ± 2.8 mg/day
- FE - K+ (fractional excretion of potassium) (PAN-nephropathic rats [4]; 11 wks of treatment): 29.7 ± 1.7 %
- FE - Na+ (fractional excretion of sodium) (PAN-nephropathic rats [4]; 11 wks of treatment): 0.37 ± 0.04%
- Fluid Intake (PAN-nephropathic rats [4]; 11 wks of treatment): 6.12 ± 0.583 mL/h/kg
- Food Intake (PAN-nephropathic rats [4]; 11 wks of treatment): 58 ± 6 g/kg/day
- Plasma Cholesterol (PAN-nephropathic rats [4]; 11 wks of treatment): 340.6 ± 27.3 mg/dL
- Potassium Excretion (PAN-nephropathic rats [4]; 11 wks of treatment): 8.36 ± 1.25 mEq/day/kg
- Sodium Excretion (PAN-nephropathic rats [4]; 11 wks of treatment): 3.12 ± 0.66 mEq/day/kg
- Urine Volume (PAN-nephropathic rats [4]; 11 wks of treatment): 3.44 ± 0.312 mL/h/kg
- Creatinine clearance (in words, FIGS. 1B and 1C) (PAN-nephropathic rats [4]; chronic treatment): attenuated the decline in creatinine clearance caused by PAN
- Plasma creatinine levels (in words, FIG. 1A) (PAN-nephropathic rats [4]; chronic treatment): attenuated PAN-induced increases in plasma creatinine levels
- UPE corrected for creatinine clearance (UPE/CrCl; in words, FIG. 2B) (PAN-nephropathic rats [4]; chronic treatment): this effect became even more significant
- Urinary protein excretion (UPE; in words, FIG. 2A) (PAN-nephropathic rats [4]; chronic treatment): reduced PAN-induced increases in urinary protein excretion
- Glomerular collagen IV, labeling index (in words, FIGS. 5 and 6) (collagen IV): significantly reduced the labeling index of glomerular immunoreactive collagen IV
- Number of ED1 positive cells in glomeruli and interstitium (in words, FIG. 4) (ED1 positive cells): significantly (P<0.001) reduced the number of inflammatory cells in glomeruli and in the interstitium
- Reduction of PAN-induced mortality (PAN-treated rats; 2-hydroxyestradiol 10 μg/kg/hour by osmotic minipump): 66%
- Animals died during the treatment (PAN-treated rats; n=13 per group): 2 animals
